{
  "source": "PubChem BioAssay AID1259334",
  "about": "(Broad Institute, 2017)",
  "key": {"[1]": {"assay": "TNFa signaling inhibitors in B cell line, dose response, counter-screen (AID 1259334);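 note: cells stimulated with TNFa after compound preincubation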", "conditions": "B cell line, TNFa signaling counterscreen reporter, stronger effect = lower value"}, "[2]": {"system": "B cell line, TNFa signaling counterscreen reporter", "assay": "TNFa signaling inhibitors in B cell line, dose response, counter-screen (AID 1259334)"}},
  "note": "Active and inactive are the calls of the source. Cut-off read from the data, not from the text of the source: active = AC50 below about 11 µM.",
  "data": [
    {"compound": "O=C(c1ccc(F)cc1)N1C[C@@H]2N[C@H](C1)C2c1ccc(/C=C/c2ccccc2)cc1", "note": "(stereo partly drawn)", "values": [
      {"measurement": "max activity", "setting": "[1]; at 3.5 µM", "value": "10.7% (inactive)"},
      {"measurement": "AC50", "setting": "[2]", "value": 7.15, "unit": "µM"}
    ]},
    {"compound": "Cc1cc(C)c2c(c1)SC1=NC(c3ccccc3)(C(F)(F)F)NC(=O)N12", "note": "(stereo not drawn)", "values": [
      {"measurement": "max activity", "setting": "[1]; at 0.12 µM", "value": "-5.9% (inactive)"}
    ]},
    {"compound": "COc1ccc(S(=O)(=O)N(C)C[C@@H]2Oc3ccc(NC(=O)Nc4ccc(C(F)(F)F)cc4)cc3C(=O)N([C@@H](C)CO)C[C@@H]2C)cc1", "values": [
      {"measurement": "max activity", "setting": "[1]; at 0.0135 µM", "value": "7.2% (inactive)"}
    ]},
    {"compound": "C[C@@H]1CN([C@@H](C)CO)C(=O)c2c(c3ccccc3n2C)-c2ccccc2CO[C@@H]1CN(C)Cc1cccc(C(F)(F)F)c1", "values": [
      {"measurement": "max activity", "setting": "[1]; at 0.38 µM", "value": "-7.66% (inactive)"}
    ]},
    {"compound": "COc1cccc(NC(=O)N2CC(=O)N3[C@H](CO)[C@@H](c4ccc(C#CCC5CCCC5)cc4)[C@H]3C2)c1", "values": [
      {"measurement": "max activity", "setting": "[1]; at 0.12 µM", "value": "16.8% (inactive)"}
    ]},
    {"compound": "Cc1ccccc1S(=O)(=O)N1C[C@@H]2N[C@H](C1)C2c1ccc(-c2cccc(C#N)c2)cc1", "note": "(stereo partly drawn)", "values": [
      {"measurement": "max activity", "setting": "[1]; at 10 µM", "value": "22.9% (inactive)"}
    ]},
    {"compound": "COCCn1c(C)cc(C(=O)COC(=O)c2ccc(Br)o2)c1C", "values": [
      {"measurement": "max activity", "setting": "[1]; at 3.5 µM", "value": "-9.22% (inactive)"}
    ]},
    {"compound": "COc1ccc2c(c1)c1ncn(Cc3ccccn3)c(=O)c1n2C", "values": [
      {"measurement": "max activity", "setting": "[1]; at 1.1 µM", "value": "-8.21% (inactive)"}
    ]},
    {"compound": "CCOC(=O)c1cc2c(ccn2C)n1Cc1ccc(C#N)cc1", "values": [
      {"measurement": "max activity", "setting": "[1]; at 10 µM", "value": "20.1% (inactive)"}
    ]},
    {"compound": "C[C@@H]1CN([C@H](C)CO)C(=O)c2c(c3ccccc3n2C)-c2ccccc2CO[C@@H]1CN(C)S(=O)(=O)c1ccccc1C#N", "values": [
      {"measurement": "max activity", "setting": "[1]; at 0.11 µM", "value": "17.1% (inactive)"}
    ]},
    {"compound": "Cc1ccc(C2(C)NC(=O)N(CC(=O)Nc3cccnc3Cl)C2=O)cc1", "note": "(stereo not drawn)", "values": [
      {"measurement": "max activity", "setting": "[1]; at 0.12 µM", "value": "-17.9% (inactive)"}
    ]},
    {"compound": "C[C@]12CC[C@H](O)C[C@H]1CC[C@@H]1[C@@H]2CC[C@]2(C)[C@@H](c3ccc(=O)oc3)CC[C@]12O", "values": [
      {"measurement": "max activity", "setting": "[1]; at 0.12 µM", "value": "7.82% (inactive)"}
    ]},
    {"compound": "Cc1ccc(-c2cc(C(=O)N3CC(C)OC(C)C3)c3ccccc3n2)o1", "note": "(stereo not drawn)", "values": [
      {"measurement": "max activity", "setting": "[1]; at 1.1 µM", "value": "10.3% (inactive)"}
    ]},
    {"compound": "O=C(C1CCC1)N1CCc2cc(S(=O)(=O)N3CCCCC3)ccc21", "values": [
      {"measurement": "max activity", "setting": "[1]; at 3.5 µM", "value": "-31.7% (inactive)"}
    ]},
    {"compound": "Cc1noc(C)c1S(=O)(=O)Nc1ccc2c(c1)C(=O)N([C@@H](C)CO)C[C@H](C)[C@@H](CN(C)C(=O)Nc1cccc3ccccc13)OCCCC[C@H](C)O2", "values": [
      {"measurement": "max activity", "setting": "[1]; at 3.5 µM", "value": "-10.7% (inactive)"}
    ]},
    {"compound": "NS(=O)(=O)c1cc2c(cc1C(F)(F)F)NC(Cc1ccccc1)NS2(=O)=O", "note": "(stereo not drawn)", "values": [
      {"measurement": "max activity", "setting": "[1]; at 0.0046 µM", "value": "6.69% (inactive)"}
    ]},
    {"compound": "Cc1ccc(-c2ccccc2[C@H]2[C@@H](C#N)N(c3ncc(-c4ccccc4)s3)[C@@H]2CO)cc1", "values": [
      {"measurement": "max activity", "setting": "[1]; at 3.5 µM", "value": "7.84% (inactive)"}
    ]}
  ]
}
